ChEMBL document CHEMBL5724914, “Linking interpersonal differences in gut microbiota composition and drug biotransformation activity” (2024)

Conditions: human gut metagenome, 24 h, 2 µM
Also: call rule not given here.

Row | Bacterial Biotransformation | Structure (SMILES)
1 | Compound NOT metabolized | N#Cc1ccc(C(c2ccc(C#N)cc2)n2cncn2)cc1 [LETROZOLE]
2 | Compound metabolized | CCCCc1nc(Cl)c(CO)n1Cc1ccc(-c2ccccc2-c2nn[nH]n2)cc1 [LOSARTAN]
3 | Compound NOT metabolized | Cc1cc2c(cc1S(N)(=O)=O)S(=O)(=O)CCC2
4 | Compound NOT metabolized | COc1ccccc1OCC(O)COC(N)=O (stereo not given) [METHOCARBAMOL]

Assay: (§1) The drug is tested on Z-019 corresponding to rat gut metagenome with ENA study accession number: PRJEB37062 and ENA sample accession number: ERS12561818 for biotransformation under anaerobic condition. The drug concentrations were measured over 9 timepoints collected between 0 and 24 hours of incubation by liquid-chromatography-coupled mass spectrometry (LC–MS)
Conditions: 2 µM

Row | Bacterial Biotransformation | Structure (SMILES)
5 | Compound NOT metabolized | N#Cc1ccc(C(c2ccc(C#N)cc2)n2cncn2)cc1 [LETROZOLE]
6 | Compound NOT metabolized | CCCCc1nc(Cl)c(CO)n1Cc1ccc(-c2ccccc2-c2nn[nH]n2)cc1 [LOSARTAN]
7 | Compound NOT metabolized | Cc1cc2c(cc1S(N)(=O)=O)S(=O)(=O)CCC2
8 | Compound NOT metabolized | COc1ccccc1OCC(O)COC(N)=O (stereo not given) [METHOCARBAMOL]

Conditions: human gut metagenome, 24 h, 2 µM
Remark: another data set of the same source

Row | Bacterial Biotransformation | Structure (SMILES)
9 | Compound NOT metabolized | N#Cc1ccc(C(c2ccc(C#N)cc2)n2cncn2)cc1 [LETROZOLE]
10 | Compound metabolized | CCCCc1nc(Cl)c(CO)n1Cc1ccc(-c2ccccc2-c2nn[nH]n2)cc1 [LOSARTAN]
11 | Compound NOT metabolized | Cc1cc2c(cc1S(N)(=O)=O)S(=O)(=O)CCC2
12 | Compound NOT metabolized | COc1ccccc1OCC(O)COC(N)=O (stereo not given) [METHOCARBAMOL]

Assay: as §1, with “on Z-013” for “on Z-019”, “to rabbit” for “to rat”, “number: ERS12561813” for “number: ERS12561818”
Conditions: 2 µM

Row | Bacterial Biotransformation | Structure (SMILES)
13 | Compound NOT metabolized | N#Cc1ccc(C(c2ccc(C#N)cc2)n2cncn2)cc1 [LETROZOLE]
14 | Compound NOT metabolized | CCCCc1nc(Cl)c(CO)n1Cc1ccc(-c2ccccc2-c2nn[nH]n2)cc1 [LOSARTAN]
15 | Compound NOT metabolized | Cc1cc2c(cc1S(N)(=O)=O)S(=O)(=O)CCC2
16 | Compound NOT metabolized | COc1ccccc1OCC(O)COC(N)=O (stereo not given) [METHOCARBAMOL]

Assay: as §1, with “on WLS-007” for “on Z-019”, “to human” for “to rat”, “number: ERS12561742” for “number: ERS12561818”
Conditions: 2 µM

Row | Bacterial Biotransformation | Structure (SMILES)
17 | Compound NOT metabolized | N#Cc1ccc(C(c2ccc(C#N)cc2)n2cncn2)cc1 [LETROZOLE]
18 | Compound metabolized | CCCCc1nc(Cl)c(CO)n1Cc1ccc(-c2ccccc2-c2nn[nH]n2)cc1 [LOSARTAN]
19 | Compound NOT metabolized | Cc1cc2c(cc1S(N)(=O)=O)S(=O)(=O)CCC2
20 | Compound NOT metabolized | COc1ccccc1OCC(O)COC(N)=O (stereo not given) [METHOCARBAMOL]

Assay: as §1, with “on Z-017” for “on Z-019”, “to mouse” for “to rat”, “number: ERS12561816” for “number: ERS12561818”
Conditions: 2 µM

Row | Bacterial Biotransformation | Structure (SMILES)
21 | Compound NOT metabolized | N#Cc1ccc(C(c2ccc(C#N)cc2)n2cncn2)cc1 [LETROZOLE]
22 | Compound NOT metabolized | CCCCc1nc(Cl)c(CO)n1Cc1ccc(-c2ccccc2-c2nn[nH]n2)cc1 [LOSARTAN]
23 | Compound NOT metabolized | Cc1cc2c(cc1S(N)(=O)=O)S(=O)(=O)CCC2
24 | Compound NOT metabolized | COc1ccccc1OCC(O)COC(N)=O (stereo not given) [METHOCARBAMOL]

Conditions: human gut metagenome, 24 h, 2 µM
Remark: another data set of the same source

Row | Bacterial Biotransformation | Structure (SMILES)
25 | Compound NOT metabolized | N#Cc1ccc(C(c2ccc(C#N)cc2)n2cncn2)cc1 [LETROZOLE]
26 | Compound metabolized | CCCCc1nc(Cl)c(CO)n1Cc1ccc(-c2ccccc2-c2nn[nH]n2)cc1 [LOSARTAN]
27 | Compound NOT metabolized | Cc1cc2c(cc1S(N)(=O)=O)S(=O)(=O)CCC2
28 | Compound NOT metabolized | COc1ccccc1OCC(O)COC(N)=O (stereo not given) [METHOCARBAMOL]

Conditions: human gut metagenome, 24 h, 2 µM
Remark: another data set of the same source

Row | Bacterial Biotransformation | Structure (SMILES)
29 | Compound NOT metabolized | N#Cc1ccc(C(c2ccc(C#N)cc2)n2cncn2)cc1 [LETROZOLE]
30 | Compound metabolized | CCCCc1nc(Cl)c(CO)n1Cc1ccc(-c2ccccc2-c2nn[nH]n2)cc1 [LOSARTAN]
31 | Compound NOT metabolized | Cc1cc2c(cc1S(N)(=O)=O)S(=O)(=O)CCC2
32 | Compound NOT metabolized | COc1ccccc1OCC(O)COC(N)=O (stereo not given) [METHOCARBAMOL]

Conditions: human gut metagenome, 24 h, 2 µM
Remark: another data set of the same source

Row | Bacterial Biotransformation | Structure (SMILES)
33 | Compound NOT metabolized | N#Cc1ccc(C(c2ccc(C#N)cc2)n2cncn2)cc1 [LETROZOLE]
34 | Compound metabolized | CCCCc1nc(Cl)c(CO)n1Cc1ccc(-c2ccccc2-c2nn[nH]n2)cc1 [LOSARTAN]
35 | Compound NOT metabolized | Cc1cc2c(cc1S(N)(=O)=O)S(=O)(=O)CCC2
36 | Compound NOT metabolized | COc1ccccc1OCC(O)COC(N)=O (stereo not given) [METHOCARBAMOL]

Assay: as §1, with “on Z-016” for “on Z-019”, “to mouse” for “to rat”, “number: ERS12561815” for “number: ERS12561818”
Conditions: 2 µM

Row | Bacterial Biotransformation | Structure (SMILES)
37 | Compound NOT metabolized | N#Cc1ccc(C(c2ccc(C#N)cc2)n2cncn2)cc1 [LETROZOLE]
38 | Compound NOT metabolized | CCCCc1nc(Cl)c(CO)n1Cc1ccc(-c2ccccc2-c2nn[nH]n2)cc1 [LOSARTAN]
39 | Compound NOT metabolized | Cc1cc2c(cc1S(N)(=O)=O)S(=O)(=O)CCC2
40 | Compound NOT metabolized | COc1ccccc1OCC(O)COC(N)=O (stereo not given) [METHOCARBAMOL]

Conditions: human gut metagenome, 24 h, 2 µM
Remark: another data set of the same source

Row | Bacterial Biotransformation | Structure (SMILES)
41 | Compound NOT metabolized | N#Cc1ccc(C(c2ccc(C#N)cc2)n2cncn2)cc1 [LETROZOLE]
42 | Compound metabolized | CCCCc1nc(Cl)c(CO)n1Cc1ccc(-c2ccccc2-c2nn[nH]n2)cc1 [LOSARTAN]
43 | Compound NOT metabolized | Cc1cc2c(cc1S(N)(=O)=O)S(=O)(=O)CCC2
44 | Compound NOT metabolized | COc1ccccc1OCC(O)COC(N)=O (stereo not given) [METHOCARBAMOL]

Assay: as §1, with “Z-008” for “Z-019”, “to” for “to rat gut”, “ERS12561808” for “ERS12561818”
Conditions: 2 µM

Row | Bacterial Biotransformation | Structure (SMILES)
45 | Compound NOT metabolized | N#Cc1ccc(C(c2ccc(C#N)cc2)n2cncn2)cc1 [LETROZOLE]
46 | Compound NOT metabolized | CCCCc1nc(Cl)c(CO)n1Cc1ccc(-c2ccccc2-c2nn[nH]n2)cc1 [LOSARTAN]
47 | Compound NOT metabolized | Cc1cc2c(cc1S(N)(=O)=O)S(=O)(=O)CCC2
48 | Compound NOT metabolized | COc1ccccc1OCC(O)COC(N)=O (stereo not given) [METHOCARBAMOL]

Assay: as §1, with “Z-014” for “Z-019”, “ERS12561814” for “ERS12561818”
Conditions: 2 µM

Row | Bacterial Biotransformation | Structure (SMILES)
49 | Compound NOT metabolized | N#Cc1ccc(C(c2ccc(C#N)cc2)n2cncn2)cc1 [LETROZOLE]
50 | Compound NOT metabolized | CCCCc1nc(Cl)c(CO)n1Cc1ccc(-c2ccccc2-c2nn[nH]n2)cc1 [LOSARTAN]
51 | Compound NOT metabolized | Cc1cc2c(cc1S(N)(=O)=O)S(=O)(=O)CCC2
52 | Compound NOT metabolized | COc1ccccc1OCC(O)COC(N)=O (stereo not given) [METHOCARBAMOL]

Assay: as §1, with “on WLS-086” for “on Z-019”, “to human” for “to rat”, “number: ERS12561752” for “number: ERS12561818”
Conditions: 2 µM

Row | Bacterial Biotransformation | Structure (SMILES)
53 | Compound NOT metabolized | N#Cc1ccc(C(c2ccc(C#N)cc2)n2cncn2)cc1 [LETROZOLE]
54 | Compound metabolized | CCCCc1nc(Cl)c(CO)n1Cc1ccc(-c2ccccc2-c2nn[nH]n2)cc1 [LOSARTAN]
55 | Compound NOT metabolized | Cc1cc2c(cc1S(N)(=O)=O)S(=O)(=O)CCC2
56 | Compound NOT metabolized | COc1ccccc1OCC(O)COC(N)=O (stereo not given) [METHOCARBAMOL]

Assay: as §1, with “on WLS-073” for “on Z-019”, “to human” for “to rat”, “number: ERS12561749” for “number: ERS12561818”
Conditions: 2 µM

Row | Bacterial Biotransformation | Structure (SMILES)
57 | Compound NOT metabolized | N#Cc1ccc(C(c2ccc(C#N)cc2)n2cncn2)cc1 [LETROZOLE]
58 | Compound NOT metabolized | CCCCc1nc(Cl)c(CO)n1Cc1ccc(-c2ccccc2-c2nn[nH]n2)cc1 [LOSARTAN]
59 | Compound NOT metabolized | Cc1cc2c(cc1S(N)(=O)=O)S(=O)(=O)CCC2
60 | Compound NOT metabolized | COc1ccccc1OCC(O)COC(N)=O (stereo not given) [METHOCARBAMOL]

Assay: as §1, with “on WLS-310” for “on Z-019”, “to human” for “to rat”, “number: ERS12561785” for “number: ERS12561818”
Conditions: 2 µM

Row | Bacterial Biotransformation | Structure (SMILES)
61 | Compound NOT metabolized | N#Cc1ccc(C(c2ccc(C#N)cc2)n2cncn2)cc1 [LETROZOLE]
62 | Compound metabolized | CCCCc1nc(Cl)c(CO)n1Cc1ccc(-c2ccccc2-c2nn[nH]n2)cc1 [LOSARTAN]
63 | Compound NOT metabolized | Cc1cc2c(cc1S(N)(=O)=O)S(=O)(=O)CCC2
64 | Compound NOT metabolized | COc1ccccc1OCC(O)COC(N)=O (stereo not given) [METHOCARBAMOL]

Assay: as §1, with “on WLS-220” for “on Z-019”, “to human” for “to rat”, “number: ERS12561769” for “number: ERS12561818”
Conditions: 2 µM

Row | Bacterial Biotransformation | Structure (SMILES)
65 | Compound NOT metabolized | N#Cc1ccc(C(c2ccc(C#N)cc2)n2cncn2)cc1 [LETROZOLE]
66 | Compound metabolized | CCCCc1nc(Cl)c(CO)n1Cc1ccc(-c2ccccc2-c2nn[nH]n2)cc1 [LOSARTAN]
67 | Compound NOT metabolized | Cc1cc2c(cc1S(N)(=O)=O)S(=O)(=O)CCC2
68 | Compound NOT metabolized | COc1ccccc1OCC(O)COC(N)=O (stereo not given) [METHOCARBAMOL]

Conditions: human gut metagenome, 24 h, 2 µM
Remark: another data set of the same source

Row | Bacterial Biotransformation | Structure (SMILES)
69 | Compound NOT metabolized | N#Cc1ccc(C(c2ccc(C#N)cc2)n2cncn2)cc1 [LETROZOLE]
70 | Compound metabolized | CCCCc1nc(Cl)c(CO)n1Cc1ccc(-c2ccccc2-c2nn[nH]n2)cc1 [LOSARTAN]
71 | Compound NOT metabolized | Cc1cc2c(cc1S(N)(=O)=O)S(=O)(=O)CCC2
72 | Compound NOT metabolized | COc1ccccc1OCC(O)COC(N)=O (stereo not given) [METHOCARBAMOL]

Conditions: human gut metagenome, 24 h, 2 µM
Remark: another data set of the same source

Row | Bacterial Biotransformation | Structure (SMILES)
73 | Compound metabolized | N#Cc1ccc(C(c2ccc(C#N)cc2)n2cncn2)cc1 [LETROZOLE]
74 | Compound metabolized | CCCCc1nc(Cl)c(CO)n1Cc1ccc(-c2ccccc2-c2nn[nH]n2)cc1 [LOSARTAN]
75 | Compound NOT metabolized | Cc1cc2c(cc1S(N)(=O)=O)S(=O)(=O)CCC2
76 | Compound NOT metabolized | COc1ccccc1OCC(O)COC(N)=O (stereo not given) [METHOCARBAMOL]

Assay: as §1, with “on WLS-038” for “on Z-019”, “to human” for “to rat”, “number: ERS12561745” for “number: ERS12561818”
Conditions: 2 µM

Row | Bacterial Biotransformation | Structure (SMILES)
77 | Compound NOT metabolized | N#Cc1ccc(C(c2ccc(C#N)cc2)n2cncn2)cc1 [LETROZOLE]
78 | Compound NOT metabolized | CCCCc1nc(Cl)c(CO)n1Cc1ccc(-c2ccccc2-c2nn[nH]n2)cc1 [LOSARTAN]
79 | Compound NOT metabolized | Cc1cc2c(cc1S(N)(=O)=O)S(=O)(=O)CCC2
80 | Compound NOT metabolized | COc1ccccc1OCC(O)COC(N)=O (stereo not given) [METHOCARBAMOL]
